Patent US11344510B2, “Arylcyclohexylamine derivatives and their use in the treatment of psychiatric disorders” (Gilgamesh Pharmaceuticals, Inc., priority 2019, dated 2022)
pIC50, pKi: −log10 of the molar value.

Assays:
[1] = RLM stability (High Activity); assay type: in vitro ADME, Sprague Dawley rats; settings: for half-life at 1 μM / microsomal CLint at 1 μM: male, Sprague Dawley, rat, liver microsomes, pH 7.4, Condition 2 (High Activity), 1.0 mg protein/mL
Experimental: RLM Stability (High Activity). Pooled RLM from male Sprague Dawley rats (XenoTech R1000, lot #1910100) were used. Microsomal incubations were carried out in 96-well plates in 5 aliquots of 40 μL each (one for each time point). Liver microsomal incubation medium consisted of PBS (100 mM, pH 7.4), MgCl2 (3.3 mM), NADPH (3 mM), glucose-6-phosphate (5.3 mM), and glucose-6-phosphate dehydrogenase (0.67 units/mL), with 1.0 mg of liver microsomal protein per mL. Control incubations were performed by replacing the NADPH-cofactor system with PBS. Test compounds (1 μM, final solvent concentration 1.6%) were incubated with microsomes at 37° C., shaking at 100 rpm. Incubations were performed in duplicate. Five time points over 60 minutes were analyzed. The reactions were stopped by adding 9 volumes of 90% acetonitrile-water to incubation aliquots, followed by protein sedimentation by centrifugation at 5500 rpm for 3 minutes. Supernatants were analyzed for parent compound remaining using a fit-for-purpose liquid chromatography-tandem mass spectrometry (LC-MS/MS) method, with authentic samples of each analyte used for identity confirmation.
Data Analysis. The elimination constant (kel), half-life (t1/2) and intrinsic clearance (Clint) were determined in a plot of […] versus time, using linear regression analysis.

SERT = biological target: T1, SERT (Homo sapiens, UniProt P31645); assay: SERT radioligand binding with [3H]imipramine
T1 construct: expressed in transfected cells; host or cells: HEK293
T1 sequence (P31645 whole entry, species assumed): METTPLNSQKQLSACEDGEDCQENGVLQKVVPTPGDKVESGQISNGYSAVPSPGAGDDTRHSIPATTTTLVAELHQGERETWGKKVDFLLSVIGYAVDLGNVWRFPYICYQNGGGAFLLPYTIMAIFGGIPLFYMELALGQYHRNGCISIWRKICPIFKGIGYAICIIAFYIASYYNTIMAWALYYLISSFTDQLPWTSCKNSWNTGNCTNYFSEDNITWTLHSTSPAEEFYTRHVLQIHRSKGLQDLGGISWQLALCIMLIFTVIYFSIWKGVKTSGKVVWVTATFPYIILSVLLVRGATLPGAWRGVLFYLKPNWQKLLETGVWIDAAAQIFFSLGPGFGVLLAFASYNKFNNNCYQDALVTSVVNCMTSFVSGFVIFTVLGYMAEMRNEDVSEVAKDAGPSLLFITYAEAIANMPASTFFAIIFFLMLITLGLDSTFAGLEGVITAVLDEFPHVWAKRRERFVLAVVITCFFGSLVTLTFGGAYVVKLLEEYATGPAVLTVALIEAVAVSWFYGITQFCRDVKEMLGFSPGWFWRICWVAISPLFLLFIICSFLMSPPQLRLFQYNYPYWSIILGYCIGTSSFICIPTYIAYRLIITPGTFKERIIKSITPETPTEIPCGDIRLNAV
Experimental: (§1) Radioligand Binding. Affinity of the test compounds for SERT, NET, and DAT was determined in radioligand binding experiments with [^3H]imipramine, [^3]nisoxetine, and [^3H]WIN35,428, respectively, by WuXi AppTec (Hong Kong) Limited, under the conditions described in Table 15.

[2] = biological target: T2, vesicular monoamine transporter 2 (VMAT2) (Homo sapiens, UniProt Q05940); assay: Fluorescent substrate uptake inhibition, VMAT2; assay type: cell-based; settings: for inhibition at 10 µM: transfected cells
T2 construct: expressed in transfected cells
T2 sequence (Q05940 whole entry, species assumed): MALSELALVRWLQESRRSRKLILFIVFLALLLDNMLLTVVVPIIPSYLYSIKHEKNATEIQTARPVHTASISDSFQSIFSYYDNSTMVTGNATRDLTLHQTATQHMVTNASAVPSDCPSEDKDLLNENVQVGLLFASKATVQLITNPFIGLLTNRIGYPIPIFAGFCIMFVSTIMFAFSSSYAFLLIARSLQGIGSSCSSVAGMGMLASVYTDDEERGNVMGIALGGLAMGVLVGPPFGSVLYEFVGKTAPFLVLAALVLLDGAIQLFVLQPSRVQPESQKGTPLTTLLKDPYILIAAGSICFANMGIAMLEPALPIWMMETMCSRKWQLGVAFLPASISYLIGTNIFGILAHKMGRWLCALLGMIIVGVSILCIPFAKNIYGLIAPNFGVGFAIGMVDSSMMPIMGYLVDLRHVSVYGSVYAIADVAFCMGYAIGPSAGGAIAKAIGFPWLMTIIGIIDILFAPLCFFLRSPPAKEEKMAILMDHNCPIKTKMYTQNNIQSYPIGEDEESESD

DAT = biological target: T3, DAT (Homo sapiens, UniProt Q01959); assay: DAT radioligand binding with [3H]WIN35,428
T3 construct: expressed in transfected cells; host or cells: CHO (uptake)
T3 sequence (Q01959 whole entry, species assumed): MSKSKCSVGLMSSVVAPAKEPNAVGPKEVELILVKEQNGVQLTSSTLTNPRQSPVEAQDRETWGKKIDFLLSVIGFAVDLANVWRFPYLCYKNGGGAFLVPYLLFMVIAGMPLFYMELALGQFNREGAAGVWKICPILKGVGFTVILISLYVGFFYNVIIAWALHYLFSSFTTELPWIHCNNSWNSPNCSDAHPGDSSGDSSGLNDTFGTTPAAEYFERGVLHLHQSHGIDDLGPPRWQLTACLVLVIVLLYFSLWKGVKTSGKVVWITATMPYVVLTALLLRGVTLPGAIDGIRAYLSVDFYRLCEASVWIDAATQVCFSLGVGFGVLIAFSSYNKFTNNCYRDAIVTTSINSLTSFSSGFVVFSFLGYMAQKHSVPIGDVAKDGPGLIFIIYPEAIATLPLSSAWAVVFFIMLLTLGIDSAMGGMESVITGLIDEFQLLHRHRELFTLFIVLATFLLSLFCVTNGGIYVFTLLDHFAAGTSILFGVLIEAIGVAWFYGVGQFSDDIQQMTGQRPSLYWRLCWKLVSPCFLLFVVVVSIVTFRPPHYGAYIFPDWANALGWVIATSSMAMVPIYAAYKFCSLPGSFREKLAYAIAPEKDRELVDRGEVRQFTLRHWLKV
Experimental: as §1

[3] = RLM stability (Low Activity); assay type: in vitro ADME, Sprague Dawley rats; settings: male, Sprague Dawley, rat, liver microsomes, pH 7.4, Condition 1 (Low Activity), 0.50 mg protein/mL
Outline: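 Pooled male Sprague Dawley rat liver microsomes (0.50 mg/mL) in PBS pH 7.4 with 1 mM MgCl2 and 1 mM NADPH; compound 1 μM, 1.0% solvent, 37° C. Six time points over 60 min, parent remaining by LC-MS/MS; kel, t1/2 and Clint from linear regression of ln(AUC) versus time.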

| Structure (SMILES) | half-life at 1 μM [1] [min] | microsomal CLint at 1 μM [1] [µL/min/mg] | pKi (SERT) | inhibition at 10 µM [2] [%] | pKi (DAT) | pIC50 [2] | metabolic stability compared to non-deuterated counterparts 14R and 14S ([1]; High Activity) | half-life at 1 μM [3] [min] | microsomal CLint at 1 μM [3] [µL/min/mg] |
| --- | --- | --- | --- | --- | --- | --- | --- | --- | --- |
| CN[C@@]1(c2ccccc2)CCCCC1=O [Compound 14R, (R)-2-(methylamino)-2-phenylcyclohexan-1-one] | 18.2 | 38 | 4.40 | 6.2 | – | – | – | – | – |
| O=C1CCCC[C@]1(c1ccccc1)N1CCC1 [Compound 84R, (R)-2-(azetidin-1-yl)-2-phenyl-cyclohexan-1-one] | 21.8 | 32 | 6.22 | 14.1 | < 4.02 | 4.01 | – | – | – |
| [2H]C([2H])([2H])N[C@@]1(c2ccccc2)CCCCC1=O [Compound 88R, (R)-2-((methyl-d3)amino)-2-phenylcyclohexan-1-one] | 39.6 | 18 | – | 20.2 | – | – | increased metabolic stability | – | – |
| O=C1CCCC[C@@]1(c1ccccc1)N1CCC1 [Compound 84S, (S)-2-(azetidin-1-yl)-2-phenyl-cyclohexan-1-one] | 30.3 | 23 | 6.14 | 10.9 | 4.04 | < 4.00 | – | – | – |
| N[C@@]1(c2ccccc2)CCCCC1=O [Compound 11R, (R)-2-amino-2-phenyl-cyclohexan-1-one] | 103 | 7 | – | 14.4 | – | – | – | – | – |
| Cc1ccccc1[C@]1(N)CCCCC1=O [Compound 114R, (R)-2-amino-2-(o-tolyl)cyclohexan-1-one] | – | – | – | -14 | – | – | – | 27.6 | 50.3 |
| CN[C@]1(c2ccccc2)CCCCC1=O [Compound 14S, (S)-2-(methylamino)-2-phenylcyclohexan-1-one] | 31.6 | 22 | 4.35 | 7.4 | – | – | – | – | – |
| CN[C@]1(c2cccc(F)c2)CCCCC1=O [Compound 19S, (5)-2-(3-fluorophenyl)-2-(methylamino)cyclohexan-1-one] | 18.8 | 37 | – | -0.87 | – | – | – | – | – |
| Cc1ccccc1[C@@]1(N)CCCCC1=O [Compound 114S, (S)-2-amino-2-(o-tolyl)cyclohexan-1-one] | – | – | – | -15.9 | – | – | – | 25.4 | 54.5 |
| COCCNC1(c2ccccc2)CCCCC1=O (racemic) [Compound 29rac, 2-((2-methoxyethyl)amino)-2-phenylcyclohexan-1-one] | 17.6 | 39 | – | – | – | – | – | – | – |
| CNC1(c2ccccc2Cl)CCCCC1=O (racemic) [rac-ketamine, racemic ketamine, reference compound] | 4.6 | 151 | – | – | – | – | – | – | – |
| O=C1CCCCC1(c1ccccc1)N1CCCC1 (racemic) [Compound 27rac, 2-phenyl-2-(pyrrolidin-1-yl)cyclohexan-1-one] | – | – | 6.96 | 60.4 | 4.26 | 4.95 | – | 35.4 | 39.1 |
| N[C@]1(c2ccccc2)CCCCC1=O [Compound 11S, (S)-2-amino-2-phenyl-cyclohexan-1-one] | 109 | 6 | – | -17.4 | – | – | – | – | – |
